Reference: PubChem BioAssay (NCI)
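All cell lines were grown in 96-well plates and treated with compound for 48 hours. GI50 = concentration required for 50% inhibition of growth. TGI: concentration producing complete growth inhibition.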

Key:
Assay in all cases: NCI tumour cell line growth inhibition, 48 h
[1] = tested on: 786-0 renal
[2] = tested on: A498 renal
[3] = tested on: A549 NSCLC
[4] = tested on: ACHN renal
[5] = tested on: BT-549 breast
[6] = tested on: CAKI-1 renal
[7] = tested on: CCRF-CEM leukemia
[8] = tested on: COLO 205 colon
[9] = tested on: DU-145 prostate
[10] = tested on: EKVX NSCLC
[11] = tested on: HCC-2998 colon
[12] = tested on: HCT-116 colon
[13] = tested on: HCT-15 colon
[14] = tested on: HL-60(TB) leukemia
[15] = tested on: HOP-62 NSCLC
[16] = tested on: HOP-92 NSCLC
[17] = tested on: HS 578T breast
[18] = tested on: HT29 colon
[19] = tested on: IGROV1 ovarian
[20] = tested on: K-562 leukemia
[21] = tested on: KM12 colon
[22] = tested on: LOX IMVI melanoma
[23] = tested on: M14 melanoma
[24] = tested on: MALME-3M melanoma
[25] = tested on: MCF7 breast
[26] = tested on: MDA-MB-231 breast
[27] = tested on: MDA-MB-435
[28] = tested on: MOLT-4 leukemia
[29] = tested on: NCI-H226 lung
[30] = tested on: NCI-H23 lung
[31] = tested on: NCI-H460 lung
[32] = tested on: NCI-H522 lung
[33] = tested on: NCI/ADR-RES ovarian
[34] = tested on: OVCAR-3 ovarian
[35] = tested on: OVCAR-4 ovarian
[36] = tested on: OVCAR-5 ovarian
[37] = tested on: OVCAR-8 ovarian
[38] = tested on: PC-3 prostate
[39] = tested on: RPMI-8226 leukemia
[40] = tested on: RXF 393 renal
[41] = tested on: SF-268 CNS
[42] = tested on: SF-295 CNS
[43] = tested on: SF-539 CNS
[44] = tested on: SK-MEL-2 melanoma
[45] = tested on: SK-MEL-28 melanoma
[46] = tested on: SK-MEL-5 melanoma
[47] = tested on: SK-OV-3 ovarian
[48] = tested on: SN12C renal
[49] = tested on: SNB-19 CNS
[50] = tested on: SNB-75 CNS
[51] = tested on: SR leukemia
[52] = tested on: SW-620 colon
[53] = tested on: T-47D breast
[54] = tested on: TK-10 renal
[55] = tested on: U251 CNS
[56] = tested on: UACC-257 melanoma
[57] = tested on: UACC-62 melanoma
[58] = tested on: UO-31 renal

Q: With CN1CCN(Cc2ccc(NC(=O)c3cncc(C#Cc4cnc5ccc(N)nn45)c3)cc2C(F)(F)F)CC1 as the molecule, how does the GI50 [1] read?
A: 2080 nM

Q: What about the TGI [1] of the same molecule?
A: 6220 nM

Q: And the GI50 [2]?
A: 2720 nM

Q: And the TGI [2]?
A: 10600 nM

Q: And the GI50 [3]?
A: 1620 nM

Q: And the TGI [3]?
A: 5890 nM

Q: And the GI50 [4]?
A: 2440 nM

Q: What about the TGI [4] of the same molecule?
A: 8150 nM

Q: And the GI50 [5]?
A: 2070 nM

Q: What about the TGI [5] of the same molecule?
A: 6050 nM

Q: And the GI50 [6]?
A: 1570 nM

Q: And the TGI [6]?
A: 5830 nM

Q: What about the GI50 [7] of the same molecule?
A: 240 nM

Q: And the TGI [7]?
A: 50000 nM

Q: What about the GI50 [8] of the same molecule?
A: 348 nM

Q: What about the TGI [8] of the same molecule?
A: 1350 nM

Q: And the GI50 [9]?
A: 1390 nM

Q: And the TGI [9]?
A: 5730 nM

Q: What about the GI50 [10] of the same molecule?
A: 2630 nM

Q: What about the TGI [10] of the same molecule?
A: 13300 nM

Q: And the GI50 [11]?
A: 1180 nM

Q: What about the TGI [11] of the same molecule?
A: 5650 nM

Q: And the GI50 [12]?
A: 233 nM

Q: And the TGI [12]?
A: 2890 nM

Q: What about the GI50 [13] of the same molecule?
A: 1990 nM

Q: What about the TGI [13] of the same molecule?
A: 12200 nM

Q: And the GI50 [14]?
A: 306 nM

Q: What about the TGI [14] of the same molecule?
A: 1550 nM

Q: And the GI50 [15]?
A: 1020 nM

Q: What about the TGI [15] of the same molecule?
A: 3710 nM

Q: And the GI50 [16]?
A: 138 nM

Q: And the TGI [16]?
A: 538 nM

Q: What about the GI50 [17] of the same molecule?
A: 804 nM

Q: And the TGI [17]?
A: 5300 nM

Q: And the GI50 [18]?
A: 444 nM

Q: What about the TGI [18] of the same molecule?
A: 2280 nM

Q: What about the GI50 [19] of the same molecule?
A: 1070 nM

Q: And the TGI [19]?
A: 4640 nM

Q: And the GI50 [20]?
A: 5 nM

Q: And the TGI [20]?
A: 18100 nM

Q: What about the GI50 [21] of the same molecule?
A: 8.16 nM

Q: And the TGI [21]?
A: 1070 nM

Q: And the GI50 [22]?
A: 510 nM

Q: And the TGI [22]?
A: 1280 nM

Q: What about the GI50 [23] of the same molecule?
A: 690 nM

Q: What about the TGI [23] of the same molecule?
A: 1570 nM

Q: What about the GI50 [24] of the same molecule?
A: 496 nM

Q: What about the TGI [24] of the same molecule?
A: 1520 nM

Q: What about the GI50 [25] of the same molecule?
A: 284 nM

Q: And the TGI [25]?
A: 2370 nM

Q: And the GI50 [26]?
A: 352 nM

Q: And the TGI [26]?
A: 2610 nM

Q: And the GI50 [27]?
A: 674 nM

Q: And the TGI [27]?
A: 5780 nM

Q: And the GI50 [28]?
A: 369 nM

Q: And the TGI [28]?
A: 5810 nM

Q: And the GI50 [29]?
A: 214 nM

Q: And the TGI [29]?
A: 6120 nM

Q: What about the GI50 [30] of the same molecule?
A: 777 nM

Q: And the TGI [30]?
A: 2860 nM

Q: What about the GI50 [31] of the same molecule?
A: 526 nM

Q: What about the TGI [31] of the same molecule?
A: 3290 nM

Q: What about the GI50 [32] of the same molecule?
A: 234 nM

Q: What about the TGI [32] of the same molecule?
A: 1270 nM

Q: What about the GI50 [33] of the same molecule?
A: 25600 nM

Q: What about the TGI [33] of the same molecule?
A: 50000 nM

Q: What about the GI50 [34] of the same molecule?
A: 1670 nM

Q: And the TGI [34]?
A: 12600 nM

Q: And the GI50 [35]?
A: 1580 nM

Q: What about the TGI [35] of the same molecule?
A: 16800 nM

Q: What about the GI50 [36] of the same molecule?
A: 1410 nM

Q: What about the TGI [36] of the same molecule?
A: 9400 nM

Q: What about the GI50 [37] of the same molecule?
A: 1290 nM

Q: What about the TGI [37] of the same molecule?
A: 5390 nM

Q: What about the GI50 [38] of the same molecule?
A: 1330 nM

Q: And the TGI [38]?
A: 10800 nM

Q: What about the GI50 [39] of the same molecule?
A: 1490 nM

Q: What about the TGI [39] of the same molecule?
A: 5090 nM

Q: And the GI50 [40]?
A: 842 nM

Q: What about the TGI [40] of the same molecule?
A: 1780 nM

Q: And the GI50 [41]?
A: 867 nM

Q: And the TGI [41]?
A: 3460 nM

Q: And the GI50 [42]?
A: 2850 nM

Q: And the TGI [42]?
A: 10900 nM

Q: What about the GI50 [43] of the same molecule?
A: 288 nM

Q: What about the TGI [43] of the same molecule?
A: 3260 nM

Q: What about the GI50 [44] of the same molecule?
A: 591 nM

Q: What about the TGI [44] of the same molecule?
A: 1940 nM

Q: And the GI50 [45]?
A: 954 nM

Q: And the TGI [45]?
A: 2180 nM

Q: What about the GI50 [46] of the same molecule?
A: 3730 nM

Q: And the TGI [46]?
A: 10300 nM

Q: What about the GI50 [47] of the same molecule?
A: 2540 nM

Q: What about the TGI [47] of the same molecule?
A: 25700 nM

Q: And the GI50 [48]?
A: 850 nM

Q: And the TGI [48]?
A: 4480 nM

Q: And the GI50 [49]?
A: 1680 nM

Q: What about the TGI [49] of the same molecule?
A: 15300 nM

Q: What about the GI50 [50] of the same molecule?
A: 593 nM

Q: What about the TGI [50] of the same molecule?
A: 3180 nM

Q: And the GI50 [51]?
A: 264 nM

Q: And the TGI [51]?
A: 2240 nM

Q: And the GI50 [52]?
A: 356 nM

Q: What about the TGI [52] of the same molecule?
A: 3110 nM

Q: And the GI50 [53]?
A: 2570 nM

Q: And the TGI [53]?
A: 23900 nM

Q: And the GI50 [54]?
A: 1290 nM

Q: What about the TGI [54] of the same molecule?
A: 2650 nM

Q: And the GI50 [55]?
A: 1300 nM

Q: And the TGI [55]?
A: 6980 nM

Q: What about the GI50 [56] of the same molecule?
A: 1070 nM

Q: What about the TGI [56] of the same molecule?
A: 3340 nM

Q: What about the GI50 [57] of the same molecule?
A: 1360 nM

Q: What about the TGI [57] of the same molecule?
A: 5050 nM

Q: What about the GI50 [58] of the same molecule?
A: 5050 nM

Q: And the TGI [58]?
A: 12900 nM
